Experimental data taken from paper PMC6934184, “Selective DNA-PKcs inhibition extends the therapeutic index of localized radiotherapy and chemotherapy” (The Journal of Clinical Investigation, 2019).

Biological target: T1, BMPR1A (ALK3) (Homo sapiens, UniProt P36894)
T1 construct: purchased Thermo Fisher Scientific (Life Technologies) SelectScreen
Assay: SelectScreen LanthaScreen
Assay type: binding
Settings: read-out: % displacement
Summary of the method: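 SelectScreen broad panel; activity (Z'LYTE, Adapta) plus binding formats. ATP: Km app for CSF1R Z'LYTE; 10 for CAMK1 Adapta. Readout = % per kinase.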

T1 sequence (P36894 24-532): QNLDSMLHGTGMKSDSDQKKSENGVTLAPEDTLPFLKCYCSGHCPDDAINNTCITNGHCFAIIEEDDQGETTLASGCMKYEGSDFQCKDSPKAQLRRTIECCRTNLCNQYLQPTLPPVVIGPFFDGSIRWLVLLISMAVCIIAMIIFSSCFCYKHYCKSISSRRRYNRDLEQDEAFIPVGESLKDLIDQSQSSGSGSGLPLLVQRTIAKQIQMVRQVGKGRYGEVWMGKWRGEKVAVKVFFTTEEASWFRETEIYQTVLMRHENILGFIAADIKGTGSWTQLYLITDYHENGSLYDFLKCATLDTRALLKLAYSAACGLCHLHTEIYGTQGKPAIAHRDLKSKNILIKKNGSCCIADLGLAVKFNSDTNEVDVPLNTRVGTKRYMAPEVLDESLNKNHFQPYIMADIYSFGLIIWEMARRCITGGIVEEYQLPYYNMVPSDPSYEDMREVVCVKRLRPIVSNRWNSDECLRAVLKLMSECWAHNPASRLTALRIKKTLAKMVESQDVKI

CN(C(=O)CN1CCOCC1)c1ccc2sc3c(-c4cccc5c(=O)cc(N6CC7CCC(C6)O7)oc45)cccc3c2c1 [NU5455]
inhibition at 1 µM: -4.4%
